From paper PMC4198181, “Gold(I) Complexes of 9-Deazahypoxanthine as Selective Antitumor and Anti-Inflammatory Agents” (PLoS ONE, 2014)

Assays:
[1] = test system: human cancer cell lines (MCF7, HOS, A549, G361, HeLa, A2780, A2780R, 22Rv1); assay: MTT in vitro cytotoxicity, summary over the panel of human cancer cell lines; type: cell-based; details: on the MCF7 and HOS cell lines
Protocol: In vitro cytotoxic activity was determined by the MTT assay in human breast adenocarcinoma (MCF7; ECACC no. 86012803), human osteosarcoma (HOS; ECACC no. 87070202), lung carcinoma (A549; ECACC no. 86012804), malignant melanoma (G361; ECACC no. 88030401), cervix epitheloid carcinoma (HeLa; ECACC no. 93021013), ovarian carcinoma (A2780; ECACC no. 93112519), cisplatin-resistant ovarian carcinoma (A2780R; ECACC no. 93112517) and prostate carcinoma (22Rv1; ECACC no 105092802) cancer cell lines, purchased from European Collection of Cell Cultures (ECACC). The cells were cultured according to the ECACC instructions and they were maintained at 37°C and 5% CO2 in a humidified incubator. The primary culture of human hepatocytes (HEP220, batch number HEP220819) was obtained from Biopredic International (France). The culture medium was Williams and HAM's F-12 (1∶1) supplemented with penicillin, streptomycin, ascorbic acid, linoleic acid, holo-transferin, ethanolamine, glucagon, insulin, dexamethasone, pyruvate, glucose, glutamine, amphotericin. The medium was enriched for plating with 2% foetal calf serum (v/v). The medium was exchanged for a serum-free medium the day after and the culture was stabilized for additional 24 h. Thereafter, the cells were ready for treatments. The cultures were maintained at 37°C and 5% CO2 in a humidified incubator. The cells were treated with complexes 1–5 (at the concentration levels of 0.01, 0.1, 1.0, 5.0, 25.0, and 50.0 µM), starting compounds e.g. HL1–5, AuCl, and cisplatin (applied up to 50 µM) for 24 h, using multi-well culture plates of 96 wells. […]
The cytotoxicity data were expressed as the percentage of viability, where 100% represented the treatments with vehicle (0.1% DMF or 0.1% DMSO). […] The IC50 values were calculated from viability curves. […] The significance of the differences between the results was assessed by the ANOVA analysis with p<0.05 considered to be significant (QC Expert 3.2, Statistical software, TriloByte Ltd., Pardubice, Czech Republic).

[2] = Interactions with L-cysteine and reduced glutathione by ESI+ MS; type: physicochemical; details: 20 µM complex, 290 µM cysteine, 6 µM glutathione, methanol/water 1:1
Protocol: The interactions of selected gold(I) complexes 2 and 4, involving the isopropyloxy and benzyloxy substituent on C6 of 9-deazapurine, with the sulfur-containing biomolecules (i.e. L-cysteine and reduced glutathione) were studied by ESI+ mass spectrometry (ESI+ MS). The experiments were carried out using a Thermo Scientific LTQ Fleet Ion-Trap mass spectrometer, in positive ionization mode. The reactions of the representative complexes 2 and 4 were performed in methanol/water mixture (1∶1, v/v) containing the physiological concentrations of L-cysteine and glutathione (at the final concentrations of 290 µM, and 6 µM [63], respectively). The reference system consisted of the solutions of complexes (20 µM) in methanol/water mixture (1∶1, v/v). The flow injection analysis (FIA) method was utilized to introduce the reaction system (5 µL spikes) into the mass spectrometer and pure acetonitrile was used as a mobile phase. The ESI-source was set-up as follows: source voltage (5 kV), the vaporizer temperature (160°C), the capillary temperature (250°C), the sheath gas flow (30 L/min), and auxiliary gas flow rate (10 L/min). The system was calibrated as stated in the manufactured specifications and no further tuning was needed.

CC(C)Oc1ncnc2cc[n]([Au])c12.c1ccc(P(c2ccccc2)c2ccccc2)cc1 [complex 2, [Au(L2)(PPh3)]]
times more efficient than cisplatin [1]: at least 20 times | time within which interaction intermediates with cysteine/glutathione were detected (N-ligand exchange) [2]: ≤ 1 h
